Data on 21 compounds can be found in patent publication US20130281465A1, “PYRAZOLE DERIVATIVE” (TAISHO PHARMACEUTICAL CO., LTD., priority 2010, published 2013).

Test [1] concerns the target T1, orexin type 2 receptor (hOX2R) (Homo sapiens, UniProt O43614).
T1 construct: expressed in transfected cells; host or cells: Chinese hamster ovary (CHO) cells
T1 sequence (O43614 1-444): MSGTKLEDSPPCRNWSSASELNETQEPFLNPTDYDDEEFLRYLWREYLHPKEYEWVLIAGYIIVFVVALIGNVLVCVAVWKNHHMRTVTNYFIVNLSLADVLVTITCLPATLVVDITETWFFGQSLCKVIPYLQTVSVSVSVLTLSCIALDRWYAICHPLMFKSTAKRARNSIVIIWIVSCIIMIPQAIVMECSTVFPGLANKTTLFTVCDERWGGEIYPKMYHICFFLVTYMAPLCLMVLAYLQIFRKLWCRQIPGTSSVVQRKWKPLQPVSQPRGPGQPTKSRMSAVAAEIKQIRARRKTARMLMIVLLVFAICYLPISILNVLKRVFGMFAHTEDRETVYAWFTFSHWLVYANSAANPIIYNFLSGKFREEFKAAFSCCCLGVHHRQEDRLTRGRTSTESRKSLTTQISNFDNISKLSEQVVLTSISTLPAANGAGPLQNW
Briefly: Orexin receptor antagonistic activity, intracellular Ca2+ fluorescence (FDSS) in CHO cells expressing hOX2R. Conditions: CHO cells forced to express hOX2R; orexin-A analogue peptide ligand 3 nM; Fluo-4 maximum fluorescence; read-out: IC50 value OX2R. The format is cell-based. As to the method:
(§1) The antagonistic activity of each test compound against human orexin type 1 receptor (hOX1R) and orexin type 2 receptor (hOX2R) was performed as described in the literature with a modification (Toshikatsu Okumura et al., Biochemical and Biophysical Research Communications 280, 976-981, 2001). Chinese hamster ovary (CHO) cells forced to express hOX1R or hOX2R were seeded at 20,000 cells/well on a 96 well Black clear bottom plates (Nunc) and cultured for 16 hours under conditions of 37° C. and 5% CO2 using a Ham's F-12 medium containing 0.1 mM MEM non-essential amino acids, 0.5 mg/ml G418, and 10% fetal bovine serum (all from Invitrogen Corp.). After removal of the medium, 100 μL of the assay buffer (25 mM HEPES (Dojindo Laboratories), Hanks' balanced salt solution (Invitrogen Corp.), 0.1% bovine serum albumin, 2.5 mM probenecid, 200 μg/ml Amaranth (all from Sigma-Aldrich Corp.), pH 7.4) containing 0.5 μM Fluo-4AM ester (Dojindo Laboratories) was added thereto, and the cells were incubated for 60 minutes under conditions of 37° C. and 5% CO2. After removal of the buffer solution for assay containing Fluo-4AM ester, the test compound was dissolved at a concentration of 10 mM in dimethyl sulfoxide and diluted with the assay buffer, and 150 μL of the diluted solution was then added to each wells, which were then incubated for 30 minutes.
(§2) A peptide (Pyr-[…]11e-Leu-Thr-Leu-NH2; Peptide Institute, Inc.) substituted 2 amino acids of human orexin-A was diluted with the assay buffer to 300 pM (final concentration for hOX1R) or 3 nM (final concentration for hOX2R). 50 μL of this ligand solution was added thereto to start reaction. During the reaction, the fluorescence value of each well was measured every one second for 3 minutes using Functional Drug Screening System (FDSS; manufactured by Hamamatsu Photonics K.K.), and antagonistic activity was determined with the maximum fluorescence value as an index for intracellular Ca^2+ concentration. The antagonistic activity of the test compound was calculated with the fluorescence value of a well supplemented with only a dilution buffer solution as 100% and the fluorescence value of a well supplemented with a buffer solution containing neither the ligand nor the compound as 0%, and determined in terms of 50% inhibitory concentration (IC50 value) from fluorescence values derived from the test compound added at varying concentrations.

For test [2], the target named is T2, human orexin type 1 receptor (hOX1R) (Homo sapiens, UniProt O43613).
T2 construct: expressed in transfected cells; host or cells: Chinese hamster ovary (CHO) cells
T2 sequence (O43613 1-425): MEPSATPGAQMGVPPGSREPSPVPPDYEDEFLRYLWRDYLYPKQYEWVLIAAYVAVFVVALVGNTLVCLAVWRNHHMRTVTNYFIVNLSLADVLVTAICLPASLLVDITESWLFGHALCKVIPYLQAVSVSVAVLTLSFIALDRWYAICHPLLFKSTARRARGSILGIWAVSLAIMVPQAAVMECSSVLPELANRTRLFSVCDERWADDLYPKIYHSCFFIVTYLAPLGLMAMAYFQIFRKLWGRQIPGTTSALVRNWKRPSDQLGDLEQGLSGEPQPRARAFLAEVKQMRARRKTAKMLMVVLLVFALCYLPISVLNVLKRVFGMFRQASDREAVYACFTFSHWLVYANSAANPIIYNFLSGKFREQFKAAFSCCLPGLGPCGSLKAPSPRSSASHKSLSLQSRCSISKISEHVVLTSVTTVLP
Briefly: Orexin receptor antagonistic activity, intracellular Ca2+ fluorescence (FDSS) in CHO cells expressing hOX1R. The format is cell-based. As to conditions: CHO cells forced to express hOX1R; orexin-A analogue peptide ligand 300 pM; Fluo-4 maximum fluorescence; read-out: IC50 value OX1R. The method, then:
as §1, §2

On to `Cc1ccc(-n2nccn2)c(C(=O)N(CCn2ccc(-c3ccc(F)cn3)n2)CC(F)F)c1` [Example 22, N-(2,2-difluoroethyl)-N-{2-[3-(5-fluoropyridin-2-yl)-1H-pyrazol-1-yl]ethyl}-5-methyl-2-(2H-1,2,3-triazol-2-yl)benzamide], for which the half-inhibitory concentration (IC50) was 32.5 nM in test [1] and 10.5 nM in test [2].

Consider `CN(CCn1ccc(-c2ccc(F)cn2)n1)C(=O)c1cc(F)ccc1-n1nccn1` [Example 23-2, N-methyl-N-{2-[3-(5-fluoropyridin-2-yl)-1H-pyrazol-1-yl]ethyl}-5-fluoro-2-(2H-1,2,3-triazol-2-yl)benzamide], for which the IC50 in test [1] was 132 nM; in test [2], 76 nM.

With `CCN(CCn1ccc(-c2ccc(F)cn2)n1)C(=O)c1cc(F)ccc1-n1nccn1` [Example 24, N-ethyl-N-{2-[3-(5-fluoropyridin-2-yl)-1H-pyrazol-1-yl]ethyl}-5-fluoro-2-(2H-1,2,3-triazol-2-yl)benzamide], the figures for the IC50 in test [1] and in test [2] were 12.2 nM and 7.2 nM, respectively.

Regarding `CCN(CCn1ccc(-c2ccc(F)cn2)n1)C(=O)c1cc(C)ccc1-c1ncccn1` [Example 26, N-ethyl-N-{2-[3-(5-fluoropyridin-2-yl)-1H-pyrazol-1-yl]ethyl}-5-methyl-2-(pyrimidin-2-yl)benzamide], the 50% inhibitory concentration (IC50) in test [1] was 3.7 nM; in test [2], 1.4 nM.

As for `Cc1ccc(-n2nccn2)c(C(=O)N(CCn2ccc(-c3ccc(F)cn3)n2)C(C)C)c1` [Example 27, N-{2-[3-(5-fluoropyridin-2-yl)-1H-pyrazol-1-yl]ethyl}-5-methyl-N-(propan-2-yl)-2-(2H-1,2,3-triazol-2-yl)benzamide], the IC50 in test [1] was found to be 43.6 nM; in test [2], 20.9 nM.

Regarding `Cc1ccc(-n2nccn2)c(C(=O)N(CCn2ccc(-c3ccc(F)cc3)n2)CC2CC2)c1` [Example 28, N-(cyclopropylmethyl)-N-{2-[3-(4-fluorophenyl)-1H-pyrazol-1-yl]ethyl}-5-methyl-2-(2H-1,2,3-triazol-2-yl)benzamide], the results for the IC50 in test [1] and in test [2] were 4 nM and 1.2 nM, respectively.

Take `Cc1ccc(-n2nccn2)c(C(=O)N(CCn2ccc(-c3ccccc3)n2)CC2CC2)c1` [Example 29, N-(cyclopropylmethyl)-5-methyl-N-[2-(3-phenyl-1H-pyrazol-1-yl)ethyl]-2-(2H-1,2,3-triazol-2-yl)benzamide]: the results for the concentration for half-maximal inhibition (IC50) in test [1] and in test [2] were 6.1 nM and 1.5 nM, respectively.

Consider `Cc1ccc(-n2nccn2)c(C(=O)N(CCn2ccc(-c3ccc(F)cn3)n2)C2CC2)c1` [Example 30, N-cyclopropyl-N-{2-[3-(5-fluoropyridin-2-yl)-1H-pyrazol-1-yl]ethyl}-5-methyl-2-(2H-1,2,3-triazol-2-yl)benzamide], for which the values for the IC50 in test [1] and in test [2] were 1.8 nM and 1.3 nM, respectively.

Consider `Cc1ccc(-n2nccn2)c(C(=O)N(CCn2ccc(-c3ccc(F)cn3)n2)C2COC2)c1` [Example 31, N-{2-[3-(5-fluoropyridin-2-yl)-1H-pyrazol-1-yl]ethyl}-5-methyl-N-(oxetan-3-yl)-2-(2H-1,2,3-triazol-2-yl)benzamide], for which the IC50 in test [1] turned out to be 26.9 nM; in test [2], 24.9 nM.

With `CCN(CCn1ccc(-c2ccc(F)cn2)n1)C(=O)c1ccccc1-n1nccn1` [Example 32, N-ethyl-N-{2-[3-(5-fluoropyridin-2-yl)-1H-pyrazol-1-yl]ethyl}-2-(2H-1,2,3-triazol-2-yl)benzamide], the IC50 in test [1] stood at 6.6 nM; in test [2], 9 nM.

Take `CCN(CCn1ccc(-c2ccc(F)cn2)n1)C(=O)c1cc(Cl)ccc1-n1nccn1` [Example 33, 5-Chloro-N-ethyl-N-{2-[3-(5-fluoropyridin-2-yl)-1H-pyrazol-1-yl]ethyl}-2-(2H-1,2,3-triazol-2-yl)benzamide]: the IC50 in test [1] was found to be 2.2 nM; in test [2], 6.5 nM.

For the compound `CCN(CCn1ccc(-c2ccc(F)cn2)n1)C(=O)c1ccccc1-c1ncccn1` [Example 34, N-ethyl-N-{2-[3-(5-fluoropyridin-2-yl)-1H-pyrazol-1-yl]ethyl}-2-(pyrimidin-2-yl)benzamide], the concentration for half-maximal inhibition (IC50) in test [1] came to 8.9 nM; in test [2] it was 8.4 nM.

In the case of `CCN(CCn1ccc(-c2ccc(F)cn2)n1)C(=O)c1cc(C)ccc1-c1ccccn1` [Example 35, N-ethyl-N-{2-[3-(5-fluoropyridin-2-yl)-1H-pyrazol-1-yl]ethyl}-5-methyl-2-(pyridin-2-yl)benzamide], the results for the half-maximal inhibitory concentration (IC50) in test [1] and in test [2] were 11.7 nM and 1.8 nM, respectively.

`CCN(CCn1ccc(-c2ccc(F)cn2)n1)C(=O)c1cc(C)ccc1-c1cccnc1` [Example 36, N-ethyl-N-{2-[3-(5-fluoropyridin-2-yl)-1H-pyrazol-1-yl]ethyl}-5-methyl-2-(pyridin-3-yl)benzamide]: the IC50 in test [1] was 58.9 nM; in test [2] it was 30.6 nM.

Consider `CCN(CCn1cc(-c2ccc(F)cn2)cn1)C(=O)c1ccccc1-c1ncccn1` [Example 37, N-ethyl-N-{2-[4-(5-fluoropyridin-2-yl)-1H-pyrazol-1-yl]ethyl}-2-(pyrimidin-2-yl)benzamide], for which the IC50 in test [1] worked out at 301 nM; in test [2] it was 110 nM.

For the compound `CCN(CCn1ccc(-c2cccc(C)n2)n1)C(=O)c1cc(C)ccc1-n1nccn1` [Example 39, N-ethyl-5-methyl-N-{2-[3-(6-methylpyridin-2-yl)-1H-pyrazol-1-yl]ethyl}-2-(2H-1,2,3-triazol-2-yl)benzamide], the values for the IC50 in test [1] and in test [2] were 2.2 nM and 1.5 nM, respectively.

Regarding `CCN(CCn1ccc(-c2ccc(F)cn2)n1)C(=O)c1cc(F)ccc1-c1ncccn1` [Example 41, N-ethyl-5-fluoro-N-{2-[3-(5-fluoropyridin-2-yl)-1H-pyrazol-1-yl]ethyl}-2-(pyrimidin-2-yl)benzamide], the values for the IC50 in test [1] and in test [2] were 7.6 nM and 0.5 nM, respectively.

On to `CCN(CCn1ccc(-c2ccc(F)cn2)n1)C(=O)c1cc(Cl)ccc1-c1ncccn1` [Example 43, N-ethyl-5-chloro-N-{2-[3-(5-fluoropyridin-2-yl)-1H-pyrazol-1-yl]ethyl}-2-(pyrimidin-2-yl)benzamide], for which the IC50 in test [1] is 3.5 nM; in test [2], 1.8 nM.

In the case of `CCN(CCn1ccc(-c2ccc(F)cn2)n1)C(=O)c1ccc(F)cc1-n1nccn1` [Example 44, N-ethyl-4-fluoro-N-{2-[3-(5-fluoropyridin-2-yl)-1H-pyrazol-1-yl]ethyl}-2-(2H-1,2,3-triazol-2-yl)benzamide], the concentration for half-maximal inhibition (IC50) came out at 29.8 nM in test [1] and 17.3 nM in test [2].

Turning to `CCN(CCn1ccc(-c2ccc(F)cn2)n1)C(=O)c1c(F)cccc1-n1nccn1` [Example 45, N-ethyl-2-fluoro-N-{2-[3-(5-fluoropyridin-2-yl)-1H-pyrazol-1-yl]ethyl}-6-(2H-1,2,3-triazol-2-yl)benzamide], the values for the IC50 in test [1] and in test [2] were 46.9 nM and 38.7 nM, respectively.

On to `CCN(CCn1ccc(-c2ccc(F)cn2)n1)C(=O)c1c(F)cccc1-c1ncccn1` [Example 46, N-ethyl-2-fluoro-N-{2-[3-(5-fluoropyridin-2-yl)-1H-pyrazol-1-yl]ethyl}-6-(pyrimidin-2-yl)benzamide], for which the half-inhibitory concentration (IC50) is 149 nM in test [1] and 92.5 nM in test [2].

As a reminder, the IC50 is the concentration that gives 50% inhibition.
